Drawing on the NIST ThermoML archive (doi:10.1016/j.fluid.2014.09.016), this text covers mass density for two compounds.

Structures are written as SMILES. Numbers after ± are expanded uncertainties.

The conditions of this data set: 298.15 K; 101.33 kPa; Liquid; Pycnometric method.

As for `CCOP(=O)([O-])OCC.CCn1cc[n+](C)c1` [1-ethyl-3-methylimidazolium diethyl phosphate], the mass density – broadly, mass per unit of volume – was 1146.1 ± 1.4 kg/m3.

Regarding `COP(=O)([O-])OC.Cn1cc[n+](C)c1` [1,3-dimethylimidazolium dimethylphosphate], the mass density came to 1257.8 ± 1.6 kg/m3.
